Assay results taken from ChEMBL document CHEMBL3885881, “DrugMatrix”.

Organism: Rattus norvegicus
Assay: DrugMatrix - Regimen: Daily Repeat
Format: toxicity, organism-based, Sprague-Dawley
Design: regimen Daily Repeat, gender Male, age 6-8 weeks
Conditions: in vivo, po, route oral GAVAGE, […]; for ABSOLUTE BASOPHIL / ABSOLUTE EOSINOPHIL / ABSOLUTE LYMPHOCYTE / ABSOLUTE SEGMENTED NEUTROPHIL / BASOPHIL / EOSINOPHIL / ERYTHROCYTE COUNT / HEMATOCRIT / HEMOGLOBIN / LYMPHOCYTE / MEAN CORPUSCULAR HEMOGLOBIN / MEAN CORPUSCULAR HEMOGLOBIN CONCENTRATION / MEAN CORPUSCULAR VOLUME / MONOCYTE / NUCLEATED RED BLOOD CELLS / PLATELET COUNT: tissue Blood; for ALANINE AMINOTRANSFERASE / ALBUMIN / ALKALINE PHOSPHATASE / ASPARTATE AMINOTRANSFERASE / BLOOD UREA NITROGEN / CARBON DIOXIDE / CHOLESTEROL / CREATINE PHOSPHOKINASE / CREATININE / GLUCOSE / LACTATE DEHYDROGENASE / POTASSIUM / SODIUM / TOTAL BILIRUBIN / TOTAL PROTEIN / URIC ACID: tissue Plasma
[1] = 0 mg/kg, 72 h, dose level Control, time 3 day
[2] = 0 mg/kg, 120 h, dose level Control, time 5 day
[3] = 20 mg/kg, 72 h, dose level Low, time 3 day

COc1ccccc1OCCNCC(O)COc1cccc2[nH]c3ccccc3c12 (stereo unspecified) [CARVEDILOL]
ABSOLUTE BASOPHIL [1]: 0 CELLS/uL | ABSOLUTE EOSINOPHIL [1]: 0 CELLS/uL | ABSOLUTE LYMPHOCYTE [1]: 9244.83 CELLS/uL | ABSOLUTE SEGMENTED NEUTROPHIL [1]: 869.83 CELLS/uL | BASOPHIL [1]: 0% | EOSINOPHIL [1]: 0% | ERYTHROCYTE COUNT [1]: 5.43 x10E6/uL | HEMATOCRIT [1]: 34.03% | HEMOGLOBIN [1]: 13.27 G/DL | LYMPHOCYTE [1]: 90.33% | MEAN CORPUSCULAR HEMOGLOBIN [1]: 24.48 pg | MEAN CORPUSCULAR HEMOGLOBIN CONCENTRATION [1]: 39.03 G/DL | MEAN CORPUSCULAR VOLUME [1]: 62.75 fL | MONOCYTE [1]: 1% | NUCLEATED RED BLOOD CELLS [1]: 0.17 /100WBC | PLATELET COUNT [1]: 989 x10E3/uL | ALANINE AMINOTRANSFERASE [1]: 77 u/L | ALBUMIN [1]: 3.97 G/DL | ALKALINE PHOSPHATASE [1]: 464.83 u/L | ASPARTATE AMINOTRANSFERASE [1]: 89.83 u/L | BLOOD UREA NITROGEN [1]: 12.17 mg/dL | CARBON DIOXIDE [1]: 34.17 mmol/L | CHOLESTEROL [1]: 75.17 mg/dL | CREATINE PHOSPHOKINASE [1]: 367.67 u/L | CREATININE [1]: 0.16 mg/dL | GLUCOSE [1]: 142.67 mg/dL | LACTATE DEHYDROGENASE [1]: 139.33 u/L | POTASSIUM [1]: 6.38 MEQ/L | SODIUM [1]: 143.2 MEQ/L | TOTAL BILIRUBIN [1]: 0.2 mg/dL | TOTAL PROTEIN [1]: 5.77 G/DL | URIC ACID [1]: 0.7 mg/dL | ABSOLUTE BASOPHIL [2]: 0 CELLS/uL | ABSOLUTE EOSINOPHIL [2]: 0 CELLS/uL | ABSOLUTE LYMPHOCYTE [2]: 8295.33 CELLS/uL | ABSOLUTE SEGMENTED NEUTROPHIL [2]: 970 CELLS/uL | BASOPHIL [2]: 0% | EOSINOPHIL [2]: 0% | ERYTHROCYTE COUNT [2]: 5.74 x10E6/uL | HEMATOCRIT [2]: 36.22% | HEMOGLOBIN [2]: 13.85 G/DL | LYMPHOCYTE [2]: 88.67% | MEAN CORPUSCULAR HEMOGLOBIN [2]: 24.13 pg | MEAN CORPUSCULAR HEMOGLOBIN CONCENTRATION [2]: 38.25 G/DL | MEAN CORPUSCULAR VOLUME [2]: 63.08 fL | MONOCYTE [2]: 1% | NUCLEATED RED BLOOD CELLS [2]: 0.17 /100WBC | PLATELET COUNT [2]: 883.83 x10E3/uL | ALANINE AMINOTRANSFERASE [2]: 64.5 u/L | ALBUMIN [2]: 4.12 G/DL | ALKALINE PHOSPHATASE [2]: 425.67 u/L | ASPARTATE AMINOTRANSFERASE [2]: 88.5 u/L | BLOOD UREA NITROGEN [2]: 14.17 mg/dL | CARBON DIOXIDE [2]: 30.5 mmol/L | CHOLESTEROL [2]: 55.33 mg/dL | CREATINE PHOSPHOKINASE [2]: 287.17 u/L | CREATININE [2]: 0.2 mg/dL | GLUCOSE [2]: 162.83 mg/dL | LACTATE DEHYDROGENASE [2]: 111.33 u/L | POTASSIUM [2]: 5.13 MEQ/L | SODIUM [2]: 143.93 MEQ/L | TOTAL BILIRUBIN [2]: 0.17 mg/dL | TOTAL PROTEIN [2]: 5.9 G/DL | URIC ACID [2]: 0.77 mg/dL | ABSOLUTE BASOPHIL [3]: 0 CELLS/uL | ABSOLUTE EOSINOPHIL [3]: 67.33 CELLS/uL | ABSOLUTE LYMPHOCYTE [3]: 15458 CELLS/uL | ABSOLUTE SEGMENTED NEUTROPHIL [3]: 1844 CELLS/uL | BASOPHIL [3]: 0% | EOSINOPHIL [3]: 0.33% | ERYTHROCYTE COUNT [3]: 5.47 x10E6/uL | HEMATOCRIT [3]: 34.53% | HEMOGLOBIN [3]: 13.3 G/DL | LYMPHOCYTE [3]: 89.33% | MEAN CORPUSCULAR HEMOGLOBIN [3]: 24.47 pg | MEAN CORPUSCULAR HEMOGLOBIN CONCENTRATION [3]: 38.5 G/DL | MEAN CORPUSCULAR VOLUME [3]: 63.47 fL | MONOCYTE [3]: 0.33% | NUCLEATED RED BLOOD CELLS [3]: 0 /100WBC | PLATELET COUNT [3]: 907.33 x10E3/uL | ALANINE AMINOTRANSFERASE [3]: 76.33 u/L | ALBUMIN [3]: 4.1 G/DL | ALKALINE PHOSPHATASE [3]: 486 u/L | ASPARTATE AMINOTRANSFERASE [3]: 96.67 u/L | BLOOD UREA NITROGEN [3]: 11 mg/dL | CARBON DIOXIDE [3]: 32.67 mmol/L | CHOLESTEROL [3]: 75.67 mg/dL | CREATINE PHOSPHOKINASE [3]: 501.33 u/L | CREATININE [3]: 0.24 mg/dL | GLUCOSE [3]: 131 mg/dL | LACTATE DEHYDROGENASE [3]: 152.67 u/L | POTASSIUM [3]: 5.98 MEQ/L | SODIUM [3]: 145.6 MEQ/L | TOTAL BILIRUBIN [3]: 0.17 mg/dL | TOTAL PROTEIN [3]: 5.8 G/DL | URIC ACID [3]: 0.6 mg/dL
